Test results published in patent US10232041B2, “Combination of lenalidomide and polypeptide construct, and uses thereof” (Teva Pharmaceuticals Australia Pty Ltd, priority 2014, dated 2019).
“Also recorded” adds a separate entry of the source.

Columns and labels:
[1] = system: NCI-H929 multiple myeloma cells; test: NCI-H929 multiple myeloma xenograft, anti-CD38 antibody-attenuated IFN alpha-2b construct + lenalidomide (Example 1); type: in vivo, SCID mice; details: IFN-alpha 0.5 mg/kg; for tumor growth / tumor volume as a function of time (in words): construct 2.5 mg/kg ip biweekly (suboptimal), lenalidomide 2.5 mg/kg or 25 mg/kg daily for 21 days ip, FIG. 1, FIG. 2; for time at which tumor growth initiated and accelerated: after commencing treatment, construct 2.5 mg/kg ip biweekly, lenalidomide 2.5 mg/kg
Description: When tumors reached an average size of 200-300 mm^3, mice were pair matched into different groups and then treated with vehicle (PBS), free-non-attenuated interferon alpha (IFN-alpha) at 0.5 mg/kg, a suboptimal dose of an anti-CD38 antibody-IFN alpha-2b-145D construct (2.5 mg/kg, molar equivalent to 0.5 mg/kg IFN; ip, biweekly, which was determined by previous in vivo efficacy studies), an isotype-matched antibody-IFN alpha-2b-145D construct (isotype matched to the anti-CD38 antibody, with no anti-CD38 specificity), lenalidomide alone (2.5 mg/kg), a combination of free-non-attenuated interferon alpha and lenalidomide, a combination of lenalidomide and a suboptimal dose of the anti-CD38 antibody-IFN alpha-2b-145D construct, or a combination of the isotype control antibody-IFN alpha-2b-145D construct and lenalidomide. The amount of the anti-CD38 antibody-attenuated IFN alpha-2b construct administered was normalized to an IFN-alpha molar equivalent of the 0.5 mg/kg of free interferon administered to the animals.

[2] = system: H929 multiple myeloma tumor cells
Description: In this experiment, 8-12 week-old female CB.17 severe combined immunodeficient (SCID) mice were implanted with 1×10^7 H929 multiple myeloma tumor cells in 50% Matrigel® subcutaneously in the flank. Tumor volume was measured by calipers biweekly. When tumors reached an average size of 170-350 mm^3, mice were randomized and treatment commenced. An animal was terminated if the tumor grew to a volume of greater than 2000 mm^3 before the study was completed at day 60.
Ten animals were assigned to each of groups 1 to 10. Treatment may cause “partial regression” (PR) or complete regression (CR) of the tumor in an animal. In a PR response, the tumor volume was 50% or less of its Day 1 volume for three consecutive measurements during the course of the study, and equal to or greater than 13.5 mm^3 for one or more of these three measurements. In a CR response, the tumor volume was less than 13.5 mm^3 for three consecutive measurements during the study. Any animal with a CR response at the end of the study was additionally classified as a tumor free survivor (TFS).

H929 tumor cells = test: H929 human multiple myeloma xenograft, pomalidomide study (Example 3); type: in vivo, SCID mice; details: pomalidomide 2.5 mg/kg ip qd × 21; constructs 40 μg/dose ip biwk × 4; FIG. 5
Description: Pomalidomide, like lenalidomide, is a derivative and an analog of thalidomide with increased potency against multiple myeloma and reduced toxicity.
In brief, sixty female CB.17 SCID mice were injected with 1×10^7 H929 tumor cells subcutaneously in the right flank. […] The endpoint for the study was when tumor volume reached 2000 mm^3. Cohorts were divided as follows, as summarized in Table 6: Group 1, Vehicle (PBS); Group 2, Pomalidomide alone (2.5 mg/kg); Group 3, Anti-CD38-attenuated IFNα- (40 ug/dose); Group 4, Anti-isotype-IFNα-attenuated (40 ug/dose), Group 5, Pomalidomide (2.5 mg/kg) plus anti-CD38-attenuated IFNa (40 μg/dose); and Group 6, Pomalidomide (2.5 mg/kg) plus anti-isotype-attenuated IFNα- (40 μg/dose), Pomalidomide administration started at day 1 and ended on day 21; antibody-interferon fusion construct administration started on day 1 and ended on day 28.

[3] = Group 2: lenalidomide 25 mg/kg ip qd × 21, ten animals per group

Molecule | tumor growth / tumor volume as a function of time (in words) [1] | time at which tumor growth initiated and accelerated [1] | MTV Day 60 (Median Tumor Volume at study end) ([2]; Group 2: lenalidomide 25 mg/kg ip qd × 21) | (n) number of surviving animals used for MTV calculation, Day 60 [2, 3] | CR No. of Complete Regressions [2, 3] | PR No. of Partial Regressions [2, 3] | TFS No. of Tumor Free Survivors [2, 3] | tumor growth (in words) ([2]; sub-optimal dosage of construct, lenalidomide 25 mg/kg, Table 5 and FIG. 3) | tumor growth / tumor shrinkage (in words) (H929 tumor cells)
interferon alpha | delayed tumor growth relative to the vehicle control | within two weeks to about a month |  |  |  |  |  |  | 
Nc1cccc2c1CN(C1CCC(=O)NC1=O)C2=O (racemic) [lenalidomide, (RS)-3-(4-Amino-1-oxo 1,3-dihydro-2H-isoindol-2-yl)piperidine-2,6-dione] | delayed tumor growth relative to the vehicle control; also recorded: delayed the onset of rapid tumor growth | within two weeks to about a month | 726 mm^3 | 1 | 0 | 1 | 0 | delayed tumor growth relative to vehicle control | 
Nc1cccc2c1C(=O)N(C1CCC(=O)NC1=O)C2=O (racemic) [Pomalidomide, (RS)-4-Amino-2-(2,6-dioxopiperidin-3-yl)isoindole-1,3-dione] |  |  |  |  |  |  |  |  | did not substantially slow tumor growth
